Measurements reported in US20160025730A1, “METHODS OF SELECTING COMBINATION THERAPY FOR COLORECTAL CANCER PATIENTS” (NESTEC S.A., priority 2013, published 2016).

Tests used:
AKT = test: CEER phospho AKT level; settings: Lim1215 cells, 24 h, assay range 1.02-40
RSK = test: CEER phospho RSK level; type: cell-based, human; settings: Lim1215 cells, 24 h, assay range 2.56-100
From the text: (§1) These were complemented by ErbB heterodimerization assays using CEER.

ERK = test: CEER phospho ERK level; type: cell-based, human; settings: Lim1215 cells, 24 h, assay range 1.02-100
MEK = test: CEER phospho MEK level; type: cell-based, human; settings: Lim1215 cells, 24 h, assay range 1.02-100
From the text: as §1

HER3:PI3K = test: CEER HER3:PI3K complex assay; type: cell-based, human; settings: Lim1215 cells; 24 h; series 4 (FIG. 4; DMSO 24.7); assay range 3.9-500
From the text: The assays described herein can be used to detect and quantitate the amount of PI3K complex and the amount of activation and/or phosphorylation of a PI3K complex. The PI3K complex comprises: (i) a dimerized receptor tyrosine kinase pair; and (ii) a PI3K p85 subunit and a PI3K p110 (e.g., α or β) subunit. In particular embodiments, the assay comprises three antibodies: (1) a capture antibody specific for either the PI3K p85 or the PI3K p110 subunit; (2) a first detection antibody specific for a first member of the dimerized receptor tyrosine kinase pair or a PI3K subunit, wherein the first detection antibody is specific for a different domain than the capture antibody and wherein the PI3K subunit may be activated; and (3) a second detection antibody specific for a second member of the dimer pair or a PI3K subunit.
as §1

HER2:HER3 = test: CEER ErbB heterodimerization assay, HER2:HER3 dimer; type: cell-based, human; settings: Lim1215 cells, 24 h, assay range 50-1500
From the text: (§2) In certain aspects, the present invention provides an assay for detecting and/or quantitating homo- or heterodimerization of receptor tyrosine kinases including, but not limited to, HER1:HER2 dimers, HER1:HER3 dimers, HER2:HER3 dimers, HER2:HER2 dimers, HER2:HER4 dimers, p95HER2:HER3 dimers, p95HER2:HER2 dimers, and the like. A homodimer is formed by two identical molecules such as HER2:HER2 in a process called homodimerization, whereas a heterodimer is formed by two different macromolecules such as HER1:HER3 or HER2:HER3 in a process called heterodimerization. In this aspect, the assay comprises three antibodies: (1) a capture antibody specific for one member of the dimer pair; (2) a first detection antibody specific for a first member of the dimer pair, wherein the first detection antibody is specific for a different domain than the capture antibody; and a (3) a second detection antibody specific for a second member of the dimer pair.
(§3) A first detection antibody is then used to bind to a different portion (e.g., epitope) on HER2. […] The first detection antibody comprises one or a plurality of first activation state-independent antibodies specific for one member of the dimer, whereas a second detection antibody or a plurality of second detection antibodies is specific for the other member of the dimer. […] Thereafter, the plurality of detectable captured analytes are incubated with a second member of the signal amplification pair, e.g., tyramide or tyramide biotin to generate an amplified signal, which is then detected.
as §1

HER2 [1] = test: CEER total HER2 expression level; type: cell-based, human; settings: Lim1215 cells, 24 h, assay range 390-25000
From the text: as §1

HER3 [2] = test: CEER phospho HER3 activation level; type: cell-based, human; settings: Lim1215 cells, 24 h, assay range 12.8-1500
From the text: as §1

HER3 [3] = test: CEER total HER3 expression level; type: cell-based, human; settings: Lim1215 cells, 24 h, assay range 390-25000
From the text: as §1

HER2 [4] = biological target: T1, HER2 (Homo sapiens, UniProt P04626); test: CEER phospho HER2 activation level; type: cell-based; settings: Lim1215 cells, 24 h, assay range 20.48-2000
T1 construct: endogenous in cells; host or cells: Lim1215 human colon cancer cells
From the text: as §1

HER1 [5] = biological target: T2, HER1 (Homo sapiens, UniProt P00533); test: CEER phospho HER1 activation level; type: cell-based; settings: Lim1215 cells; 24 h; series 4 (FIG. 4; DMSO 4.7); assay range 0.14-10.67
T2 construct: endogenous in cells; host or cells: Lim1215 human colon cancer cells
From the text: as §1

HER1:HER3 = test: CEER ErbB heterodimerization assay, HER1:HER3 dimer; type: cell-based, human; settings: Lim1215 cells, 24 h, assay range 200-20000
From the text: as §2, §3, §1

HER1:HER2 = test: CEER ErbB heterodimerization assay, HER1:HER2 dimer; type: cell-based, human; settings: Lim1215 cells, 24 h, assay range 7.8-1000
From the text: as §2, §3, §1

HER1 [6] = test: CEER total HER1 expression level; type: cell-based, human; settings: Lim1215 cells, 24 h, assay range 7.8-500
From the text: as §1

[7] = series 3 (FIG. 3; control 11.4)
[8] = series 3 (FIG. 3; control […] >ULOQ)
[9] = series 3 (FIG. 3; control 16.3)
[10] = series 3 (FIG. 3; control 211.8)
[11] = series 3 (FIG. 3; control 3025)
[12] = series 3 (FIG. 3; control 4282)

T1 sequence (P04626 23-1255): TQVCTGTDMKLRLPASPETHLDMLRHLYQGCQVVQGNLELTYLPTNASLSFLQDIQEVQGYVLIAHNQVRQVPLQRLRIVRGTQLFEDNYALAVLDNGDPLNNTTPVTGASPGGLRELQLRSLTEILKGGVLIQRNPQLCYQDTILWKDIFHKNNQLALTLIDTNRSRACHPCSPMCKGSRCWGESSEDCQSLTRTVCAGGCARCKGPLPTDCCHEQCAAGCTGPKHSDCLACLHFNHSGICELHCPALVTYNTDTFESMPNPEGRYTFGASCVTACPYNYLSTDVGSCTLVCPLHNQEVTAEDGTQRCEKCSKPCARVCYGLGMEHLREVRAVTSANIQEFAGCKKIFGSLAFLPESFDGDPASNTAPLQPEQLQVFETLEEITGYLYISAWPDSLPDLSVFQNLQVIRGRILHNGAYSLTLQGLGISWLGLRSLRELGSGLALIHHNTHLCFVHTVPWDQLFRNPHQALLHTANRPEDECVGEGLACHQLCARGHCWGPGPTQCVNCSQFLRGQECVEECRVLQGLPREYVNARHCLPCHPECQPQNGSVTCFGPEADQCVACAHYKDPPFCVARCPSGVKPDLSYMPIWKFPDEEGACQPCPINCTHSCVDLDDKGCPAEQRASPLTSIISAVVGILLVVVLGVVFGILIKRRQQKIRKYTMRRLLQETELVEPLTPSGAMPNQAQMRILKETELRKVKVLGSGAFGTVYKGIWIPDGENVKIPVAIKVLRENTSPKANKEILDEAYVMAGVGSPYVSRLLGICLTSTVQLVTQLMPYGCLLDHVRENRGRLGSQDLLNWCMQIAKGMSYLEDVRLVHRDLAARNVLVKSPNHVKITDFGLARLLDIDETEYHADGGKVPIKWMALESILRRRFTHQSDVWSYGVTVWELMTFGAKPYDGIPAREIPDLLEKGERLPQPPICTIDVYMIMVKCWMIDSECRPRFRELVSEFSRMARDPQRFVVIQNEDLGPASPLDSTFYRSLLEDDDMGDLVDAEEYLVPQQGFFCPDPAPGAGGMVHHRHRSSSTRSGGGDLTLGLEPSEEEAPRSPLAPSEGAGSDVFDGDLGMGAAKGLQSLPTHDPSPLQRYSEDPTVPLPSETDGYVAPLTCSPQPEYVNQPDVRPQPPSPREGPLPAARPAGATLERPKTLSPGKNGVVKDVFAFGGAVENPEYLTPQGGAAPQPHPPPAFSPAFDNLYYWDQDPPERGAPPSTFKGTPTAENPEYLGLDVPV
T2 sequence (P00533 25-1210): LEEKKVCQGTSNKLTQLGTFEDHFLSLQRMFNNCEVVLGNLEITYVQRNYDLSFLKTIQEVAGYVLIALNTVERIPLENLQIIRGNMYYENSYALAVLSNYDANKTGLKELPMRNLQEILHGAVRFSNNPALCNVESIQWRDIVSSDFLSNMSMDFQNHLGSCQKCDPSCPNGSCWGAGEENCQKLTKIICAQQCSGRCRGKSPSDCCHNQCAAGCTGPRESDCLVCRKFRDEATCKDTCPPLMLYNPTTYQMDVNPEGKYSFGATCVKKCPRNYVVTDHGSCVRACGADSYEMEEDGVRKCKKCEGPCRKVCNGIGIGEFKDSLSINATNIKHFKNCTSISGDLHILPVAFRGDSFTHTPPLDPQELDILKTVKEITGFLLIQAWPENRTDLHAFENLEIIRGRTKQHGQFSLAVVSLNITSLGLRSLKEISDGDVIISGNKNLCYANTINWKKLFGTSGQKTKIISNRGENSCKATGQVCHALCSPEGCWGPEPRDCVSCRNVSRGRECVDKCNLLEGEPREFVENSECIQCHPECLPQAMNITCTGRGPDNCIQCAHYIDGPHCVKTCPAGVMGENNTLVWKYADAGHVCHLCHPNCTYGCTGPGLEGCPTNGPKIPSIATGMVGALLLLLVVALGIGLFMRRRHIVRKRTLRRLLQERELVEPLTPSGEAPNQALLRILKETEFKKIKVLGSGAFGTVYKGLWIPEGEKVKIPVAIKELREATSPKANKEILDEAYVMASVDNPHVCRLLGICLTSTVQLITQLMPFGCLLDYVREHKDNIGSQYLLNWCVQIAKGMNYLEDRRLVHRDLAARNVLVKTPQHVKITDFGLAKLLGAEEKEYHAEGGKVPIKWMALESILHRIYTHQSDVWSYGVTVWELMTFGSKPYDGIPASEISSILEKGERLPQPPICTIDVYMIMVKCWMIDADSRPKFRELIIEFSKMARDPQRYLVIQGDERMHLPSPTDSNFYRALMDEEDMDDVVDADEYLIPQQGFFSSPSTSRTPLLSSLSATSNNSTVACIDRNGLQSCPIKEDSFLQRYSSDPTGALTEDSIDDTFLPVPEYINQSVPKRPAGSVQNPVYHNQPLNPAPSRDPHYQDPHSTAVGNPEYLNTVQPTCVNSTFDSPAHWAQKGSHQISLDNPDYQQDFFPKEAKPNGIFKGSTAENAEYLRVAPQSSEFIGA

Phos HER2 (2.5 ug) (HER2 [4]; series 4 (FIG. 4; DMSO 447))	Compound	Phos AKT (10 ug) (AKT; [7]) [pg/µg]	Phos RSK (10 ug) (RSK; [8]) [pg/µg]	Phos RSK (10 ug) (RSK; series 4 (FIG. 4; DMSO 91.4)) [pg/µg]	Phos ERK (10 ug) (ERK; series 3 (FIG. 3; control 5.3)) [pg/µg]	Phos ERK (10 ug) (ERK; series 4 (FIG. 4; DMSO 3.3)) [pg/µg]	Phos MEK (10 ug) (MEK; [9]) [pg/µg]	Phos MEK (10 ug) (MEK; series 4 (FIG. 4; DMSO 9.8)) [pg/µg]	HER3:PI3K (4 ug) (HER3:PI3K)	ErbB Dimer Formation HER2:HER3 (2 ug) (HER2:HER3; [10])	ErbB Dimer Formation HER2:HER3 (2 ug) (HER2:HER3; series 4 (FIG. 4; DMSO 172.5))	Total HER2 (0.2 ug) (HER2 [1]; [11])	Total HER2 (0.2 ug) (HER2 [1]; series 4 (FIG. 4; DMSO 2581))	Phos HER3 (10 ug) (HER3 [2]; series 3 (FIG. 3; control 573))	Total HER3 (0.2 ug) (HER3 [3]; [12])	Total HER3 (0.2 ug) (HER3 [3]; series 4 (FIG. 4; DMSO 3388))	also measured
	COc1cc2ncnc(Nc3ccc(F)c(Cl)c3)c2cc1OCCCN1CCOCC1 [Gefitinib, gefitinib]	0.64	6.3	4.7	1.1	0.68	2.9	1.7									
15	CS(=O)(=O)CCNCc1ccc(-c2ccc3ncnc(Nc4ccc(OCc5cccc(F)c5)c(Cl)c4)c3c2)o1 [Lapatinib, lapatinib]	0.66	3.9	3.3	0.84	0.56	3.1	1.4	23.0	493.6	301.3	5391	4135	677	5711	6907	Phos HER2 (2.5 ug) (HER2 [4]; series 3 (FIG. 3; control 2068 >ULOQ)): 49
480	O=C(NC[C@H](O)CO)c1ccncc1Nc1ccc(I)cc1F [iMEK AS703026, AS703026]			35.9		1.1		74.9	27.8		313.2		2546			3317	Phos HER1 (10 ug) (HER1 [5]): 2.9; Phos HER3 (10 ug) (HER3 [2]; series 4 (FIG. 4; DMSO 204)): 300; ErbB Dimer Formation HER1:HER3 (0.5 ug) (HER1:HER3; series 4 (FIG. 4; DMSO 186)): 226; ErbB Dimer Formation HER1:HER2 (2 ug) (HER1:HER2; series 4 (FIG. 4; DMSO 42.7)): 52.1; Total HER1 (1 ug) (HER1 [6]; series 4 (FIG. 4; DMSO 96.8)): 69.9
	pertuzumab	1.2	92.1		2.2		8.6			472.1		5568		826	5501		ErbB Dimer Formation HER2:HER3 (2 ug) (HER2:HER3; series 2 (FIG. 2; Control 250.9)): 704.6; Total HER2 (0.2 ug) (HER2 [1]; series 2 (FIG. 2; Control 4212)): 7200; Phos AKT (10 ug) (AKT; series 2 (FIG. 2; Control 9.6)): 6.1 pg/µg; Phos HER3 (10 ug) (HER3 [2]; series 2 (FIG. 2; Control 236)): 313; Phos RSK (10 ug) (RSK; series 2 (FIG. 2; Control 289 >ULOQ)): 199 pg/µg; Phos ERK (10 ug) (ERK; series 2 (FIG. 2; Control 5.7)): 5.6 pg/µg; Phos MEK (10 ug) (MEK; series 2 (FIG. 2; Control 38.0)): 17.1 pg/µg; ErbB Dimer Formation HER1:HER3 (0.5 ug) (HER1:HER3; series 2 (FIG. 2; Control 387)): 458; ErbB Dimer Formation HER1:HER3 (0.5 ug) (HER1:HER3; series 3 (FIG. 3; control 398)): 412; ErbB Dimer Formation HER1:HER2 (2 ug) (HER1:HER2; series 2 (FIG. 2; Control […])): 161.7; ErbB Dimer Formation HER1:HER2 (2 ug) (HER1:HER2; series 3 (FIG. 3; control 46.0)): 64.8; Total HER3 (0.2 ug) (HER3 [3]; series 2 (FIG. 2; Control 7757)): 10665; Total HER1 (1 ug) (HER1 [6]; series 2 (FIG. 2; Control 171.4)): 198.5; Total HER1 (1 ug) (HER1 [6]; series 3 (FIG. 3; control 137.2)): 115.1
